Test results: US10226465B2, “Composition for use in increasing engraftment efficacy of haematopoetic stem cells after transplantation” (priority 2015, dated 2019)

Experiments:
[1] = system: human haematopoetic CD34+ stem and progenitor cells; assay: [3H]cAMP accumulation assay; assay type: cell-based; settings: for cAMP response after pertussis toxin pretreatment: pertussis toxin 16 h, + 30 μM forskolin
Procedure: Human haematopoetic CD34+ stem and progenitor cells (HSPCs, 4*10^5/mL) were first preincubated for 16 h in the absence presence of 100 ng/ml pertussis toxin (Sigma Aldrich) in X-VIVO15 medium supplemented with growth factors followed by metabolic labelling of the adenine nucleotide pool by an additional 4 h incubation period in [^3H]adenine (Perkin Elmer, 1 μCi/mL) in the X-VIVO15 medium supplemented with growth factors and 10 μg/mL adenosine deaminase (Roche). Thereafter, the cells were challenged with 1 or 10 μM Treprostinil, 1 or 10 μM dimethyl-PGE2 (dmPGE2), forskolin (30 μM) or the combination of forskolin and prostanoids for 30 min. The cells were then pelleted (5 min at 100 g), the medium was removed and the pellet was lysed in ice-cold 2.5% perchloric acid (0.9 mL) containing 0.1 mM cAMP, held on ice for 1 h and neutralized with 4.2 M KOH (0.1 mL). ATP and cAMP were separated by sequential chromatography on columns containing Dowex AG50-X8 and neutral alumina (3).
After metabolic labelling with [3H]adenine, human HSPCs were stimulated with Treprostinil (Trep, 10 μM), dmPGE2 (10 μM) or forskolin (Fsk, 30 μM), the combination of Treprostinil (10 μM) or of dmPGE2 (10 μM) with forskolin (30 μM) as outlined under Materials and Methods. Where indicated HSPCs had been pretreated with pertussis toxin (PTX) for 16 h prior to stimulation. Data are from three independent experiments carried out in triplicate, error bars indicate s.e.m. […] This difference was abolished by pertussis toxin pretreatment (ns, not significant).

[2] = biological target: EP2 receptors (Homo sapiens, UniProt P43116); settings: read-out: Kd for activation of isolated EP2 receptors; cited from earlier work
[3] = system: lethally irradiated recipient BALB/c mice; assay: In vivo homing assay (colony formation from recipient bone marrow, Example 4)
[4] = system: lethally irradiated recipient BALB/c mice; assay: In vivo engraftment assay (survival, Example 5); settings: 0.2×10^6 pretreated cells, 10/group
Procedure: Haematopoetic progenitor cells isolated from bone marrow of donor mice (BALB/c) as outlined in the legend to FIG. 4. The cells were treated in vitro with 10 μM Treprostinil and 30 μM forskolin or vehicle for 1 h at 37° C. After washing, 0.2×10^6 lineage-negative haematopoetic progenitor cells were injected via the tail vein into lethally irradiated (9 Gy) recipient BALB/c mice (10/group). If not pretreated in vitro with the combination of Treprostinil and forskolin, this number of haematopoetic progenitor cells is too low to rescue the recipient animals. Accordingly, the group of mice, which received cells that had not been pretreated, died within the first week (black line, CTRL). The limiting number of haematopoetic stem cells sufficed to rescue 50% of the mice, which had received pretreated cells and were then treated with Treprostinil (3 μg/8 h s.c. for 10 days; red curve labeled in vitro pretreated cells+in vivo treatment of recipient mice with Treprostinil). […] In contrast, mice, which received the combination of Treprostinil (3 μg/8 h) and vildagliptin (10 mg/kg/24 h) had the worst outcome of all recipient mice that had received pretreated cells: only 2 out of ten mice survived (grey line labeled in vitro pretreated cells+in vivo treatment of recipient mice with the combination of Treprostinil and vildagliptin). […]

[5] = system: lethally irradiated recipient C57Bl/6 (CD45.2+) mice; assay: Homing assay (CD45.1+ donor cells in bone marrow of CD45.2+ recipients, FACS, Example 6); assay type: in vivo
Procedure: The lineage-negative HSPCs were isolated from whole bone marrow cells of donor mice B6.SJL-PtrcAPep3B/Boyl (CD45.1+) using MACS micro beads (see above). The cells were in vitro treated with 10 μM Treprostinil and 30 μM forskolin or vehicle control for 1 h at 37° C. After washing, 0.2×10^6 lineage-negative CD 45.1^+ cells were injected in to the lethally irradiated (10 Gy) recipient C57Bl/6 (CD45.2^+) mice. Recipient mice were also treated in vivo with either Treprostinil (0.15 mg kg 8 h^−1), vildagliptin (10 mg kg^−1) or with the combination of both drugs subcutaneously. Control mice were injected with the same volume of vehicle. The whole bone marrow cells were isolated from recipient mice 16 h after transplantation. After lysis of red blood cells, the cells were stained for CD45.1 and CD45.2 markers. The proportion of CD45.1^+ and CD45.2^+ cells in the bone marrow was determined by flow cytometry.
Given that DPP-IV inhibitors may be a suitable combination partner for Treprostinil, we explored whether the DPP-IV inhibitor vildagliptin enhanced the action of Treprostinil. This was first tested in an approach, which measured the ability of injected HSPCs to home into the bone marrow: HSPCs harvested from the bone marrow of CD 45.1+ donor mice were injected into isogenic CD45.2 recipients. The animals were sacrificed after 16 h and the amount of CD45.1+ cells, which were retrieved from their bone marrows was quantified by FACS.
The recipient mice were then divided in 7 groups. […] Mice allocated to group 3 received only in vitro-treated cells, those in group 4 were subjected—in addition—to in vivo Treprostinil (Trep, 0.15 mg kg^−1 8 h^−1). Mice assigned to group 5 were administered a combined in vivo treatment with Treprostinil (0.15 mg kg−1 8 h−1) and AMD3100 (3.3 mg kg^−1 8 h^−1). Mice in group 5 received in vivo both Treprostinil (0.15 mg kg^−1 8 h^−1) and vildagliptin (10 mg kg^−1/d), and finally mice in group 6 were subjected to in vivo vildagliptin. The ability of CD45.1+cells to home into the bone marrow was assessed after 16 h by analysing the bone marrow of the recipients by FACS. Data are as means±SEM (n=3). Statistical comparisons were done by ANOVA followed by Tukey's multiple comparison.

[6] = system: lethally irradiated recipient BALB/c mice; assay: Bone marrow transplantation (survival of recipient mice, Example 6); assay type: in vivo
Procedure: These were subsequently divided in two groups. Mice allocated to group 1 (n=10) were further subjected to in vivo treatment with Treprostinil (0.15 mg kg^−1 8 h^−1) whereas mice in group 2 (n=10) received both Treprostinil (0.15 mg kg^−1 8 h^−1) and AMD3100 (3.3 mg kg^−1 8 h^−1) by subcutaneous injection every 8 h for 10 days.
Isogenic recipient mice (C57BL/6 or BALB/c) were subjected to lethal irradiation. […] Lin^− (Sca1^+ and c-Kit^+) HSPCs cells were prepared as outlined above and were pretreated ex vivo in the absence and presence of the combination of 10 μM Treprostinil+30 μM forskolin (FSK) for 1 h at 37° C. Thereafter, the cells (1-5*10^5/mouse) were injected via the tail vein. White blood cell counts were determined by FACS, blood samples were collected every 3 to 5 days starting on day 9 (where blood cell count was ˜1 G/L. In some instances, mice (25-30 g) were also treated with (i) Treprostinil (0.15 mg kg 8 h^−1) and vildagliptin (10 mg kg−^1 12 h^−1) or with the combination of both administered subcutaneously every 8 h for 10 days.
If this was the case, the action of vildagliptin ought to be blunted by simultaneous administration of AMD3100/plerixafor. An experiment was done with seven groups of recipient BALB/c mice (5/group). Several of these groups were internal controls, which were included to verify that earlier findings were recapitulated. […] It is stressed that all conditions were tested in parallel, thus a comparison is legitimate.
Murine HPSCs isolated from donor BALB/c mice were treated in vitro with 10 μM Treprostinil and 30 μM forskolin or vehicle (solid line) for 1 h at 37° C. After washing, 2×10^5 cells were injected into lethally irradiated (10 Gy) recipient BALB/c mice. […] Another group of mice (dotted lines/triangles; n=20) received HSPCs pretreated with 10 μM Treprostinil and 30 μM forskolin, and were also treated in vivo with Treprostinil (0.15 mg kg−1 8 h−1). The next group of mice (dotted lines/squares; n=20) again received in vitro HSPCs pretreated with forskolin+Treprostinil and were further treated in vivo with both Treprostinil (0.15 mg kg^−1 8 h^−1) and vildagliptin (10 mg/kg/24 h). Finally, a group of mice (dashed lines/circles; n=20) received in vitro HSPCs pretreated with forskolin+Treprostinil and were treated in vivo with vildagliptin (10 mg kg−1 per day). In vivo treatment was done by subcutaneous injections, it was initiated directly after transplantation and continued for 10 days.

[7] = system: murine haematopoetic progenitor cells; assay: In vitro migration assay (Transwell, towards SDF-1/CXCL12), murine cells; assay type: cell-based; settings: 100 ng/ml murine SDF-1, 4 h; for SDF-1/CXCL12-induced migration of Treprostinil+forskolin-stimulated cells: 10 μM AMD3100
Procedure: Murine haematopoetic progenitor cells were pretreated in vitro with the combination of 10 μM Treprostinil (Trep) and 30 μM forskolin (Fsk) (Sigma Aldrich, Vienna, Austria) or vehicle for 1 h at 37° C. in growth factor containing stem cell medium [(StemSpan™ (SFEM) (Stemcell technologies, USA) (50 ng/mL murine stem cell factor (SCF), 50 ng/mL fms-like tyrosine kinase-3 ligand (Flt3), 50 ng/mL interleukin 11 (IL11) and 150 ng/mL murine interleukin 3 (mIL3)] purchased from PeproTech (London, United Kingdom)). Thereafter cells were washed and resuspended at 2×10^6 cells/mL in medium.
The cell suspension (0.1 mL containing 2×10^5 cells) was added to the upper chamber of Transwell™ dishes (5 μm pore diameter). The bottom chamber was followed with medium or medium containing 100 ng/ml murine stromal derived factor-1 (SDF-1=CXCL12). Cells were allowed to migrate for 4 h at 37° C. Subsequently, the number of cells recovered from the lower chamber was determined by a cell counter. The number of migrated cells was expressed as percentage of total cells added to the upper chamber.
Hematopoietic stem and progenitor cells were preincubated with Treprostinil (10 μM; T) and forskolin (30 μM; F) for 1 h at 37° C., washed and resuspended at a cell density of 2×10^6 cells/mL. The cell suspension (2×10^5 cells in 0.1 mL) was added to the upper chamber the Transwell™ dish, which contained medium with and without 10 ΞM CXCR4 antagonist AMD3100 (10 μM). The medium in the lower chamber contained 100 ng/ml murine SDF-1. The incubation lasted for 4 h at 37° C.; thereafter cells recovered in the lower chamber were counted as outlined in the legend to FIG. 1. Data shown are means±SEM from three independent experiments carried out in triplicate. Statistically significant differences were assessed by one way ANOVA followed by Dunnett's multiple comparisons (***, p<0.001).

[8] = Treprostinil+forskolin-treated cells, recipients treated in vivo (Treprostinil 3 μg/8 h, vildagliptin 10 mg/kg/24 h)
[9] = untreated cells, recipients treated in vivo (Treprostinil 3 μg/8 h, vildagliptin 10 mg/kg/24 h) from 24 h before transplantation
[10] = Treprostinil+forskolin-pretreated HSPCs, recipients given one drug in vivo (Treprostinil 0.15 mg kg-1 8 h-1 or vildagliptin 10 mg kg-1/d), 16 h
[11] = 2*10^5 Treprostinil+forskolin-pretreated HSPCs, in vivo s.c. for 10 days (Treprostinil 0.15 mg kg-1 8 h-1 or vildagliptin 10 mg kg-1 per day), n=20
[12] = pretreated HSPCs, recipients given Treprostinil in vivo plus the named drug (AMD3100 3.3 mg kg-1 8 h-1 or vildagliptin 10 mg kg-1/d)
[13] = seven groups, 5/group, all received 2*10^5 Treprostinil+forskolin-pretreated HSPCs, in vivo treatment as named

Sequence of EP2 receptors (P43116 whole entry): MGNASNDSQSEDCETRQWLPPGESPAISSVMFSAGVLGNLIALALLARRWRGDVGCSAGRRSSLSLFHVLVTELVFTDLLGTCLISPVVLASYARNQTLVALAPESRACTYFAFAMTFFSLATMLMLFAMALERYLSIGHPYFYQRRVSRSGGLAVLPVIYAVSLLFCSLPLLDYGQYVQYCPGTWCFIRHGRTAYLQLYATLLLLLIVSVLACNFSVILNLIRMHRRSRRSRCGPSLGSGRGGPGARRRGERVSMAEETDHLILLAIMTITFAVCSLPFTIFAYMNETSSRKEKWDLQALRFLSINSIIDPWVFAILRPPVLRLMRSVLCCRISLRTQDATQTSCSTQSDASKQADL

Structure (SMILES)	cAMP response after pertussis toxin pretreatment [1]	homing into bone marrow (colonies) [3, 8]	homing into bone marrow (colonies) [3, 9]	homing of CD45.1+ cells into bone marrow [5, 10]	survival of recipient mice [6, 11] [%]	homing of CD45.1+ cells into bone marrow [5, 12]	survival of recipient mice [6, 13]	also measured
CCCCC(C)(C)[C@H](O)/C=C/[C@H]1[C@H](O)CC(=O)[C@@H]1C/C=C\CCCC(=O)O [dmPGE2, 16,16-dimethyl PGE2]	increased the response to dmPGE2							Kd [2]: ~1 nM
CCCCC[C@H](O)CC[C@@H]1[C@H]2Cc3cccc(OCC(=O)[O-])c3C[C@H]2C[C@H]1O.[Na+] [Treprostinil, (1R,2R,3aS,9aS)-[[2,3,3a,4,9,9a-hexahydro-2-hydroxy-1-[(3S)-3-hydroxyoctyl]-1H-benz[f]inden-5-yl]oxy]acetic acid monosodium salt]	no significant difference	promoted homing	did not promote homing	increased their homing into the bone marrow	60			mice rescued ([4]; in vivo Treprostinil 3 μg/8 h s.c. for 10 days): 50%; cAMP in haematopoetic progenitor cells [1]: stimulates cAMP; cAMP accumulation, efficacy compared ([1]; 10 μM, in the presence of 30 μM forskolin, 30 min): more efficacious than 10 μM dmPGE2; cAMP accumulation, efficacy compared ([1]; absence or presence of 30 μM forskolin): significantly more efficacious than dmPGE2; span of concentration-response curve (cAMP) ([1]; human haematopoetic stem and progenitor cells): more than two orders of magnitude between 10 and 90% of the response; shape of in vivo dose-response-curve for bone marrow engraftment ([6]; noted previously, higher doses less beneficial than standard dose): bell-shaped
c1cc(CN2CCCNCCNCCCNCC2)ccc1CN1CCCNCCNCCCNCC1 [AMD3100]						abolished	Enhances Survival	SDF-1/CXCL12-induced migration of Treprostinil+forskolin-stimulated cells [7]: inhibits the SDF-1/CXCL12-induced migration; SDF-1/CXCL12-induced migration of Treprostinil+forskolin-stimulated cells ([7]; listed as plerixafor/AMD3100): blocked; survival of recipient mice ([6]; pretreated HSPCs, AMD3100 3.3 mg kg-1 8 h-1 concomitant with Treprostinil 0.15 mg kg-1 8 h-1 s.c. 10 days, n=10): all recipient mice eventually succumbed to bone marrow failure
N#C[C@@H]1CCCN1C(=O)CNC12CC3CC(CC(O)(C3)C1)C2 [vildagliptin]		promoted homing	did not promote homing	most pronounced increase in homing	100	abrigated the homing effect of Treprostinil	fared best	SDF-1/CXCL12-induced migration of Treprostinil+forskolin-preincubated cells ([7]; 30 nM vildagliptin): enhances the SDF-1/CXCL12-induced migration; mice survived ([4]; in vivo s.c. for 10 days (vildagliptin 10 mg/24 h; combination Treprostinil 3 μg/8 h + vildagliptin 10 mg/kg/24 h)): 10 out of 10; homing of CD45.1+ cells into bone marrow ([5]; untreated HSPCs, recipients given vildagliptin 10 mg kg-1/d in vivo): did not enhance homing
